This note sets out measurements from PMC7895427, “A stapled peptide mimetic of the CtIP tetramerization motif interferes with double-strand break repair and replication fork protection” (Science Advances, 2021).

For data set [1], the system named is U2OS cells. The experiment in a line: EdU incorporation, cell cycle distribution and cell proliferation. Format: cell-based. To be noted: fig. S5, E and F; proliferation at 5 μM. The method, then:
HeLa cells were seeded into six-well plates and incubated with peptides in a volume of 2 ml for varying time points. Cells were harvested by trypsinization, washed, and resuspended in PBS before subjecting them to flow cytometry analysis. FITC intensity was measured with an Attune Nxt flow cytometer equipped with a 488-nm laser and 530/30 band-pass filter. Analysis of 5-Ethynyl-2′-deoxyuridine (EdU) incorporation was carried out using the Click-iT EdU technology (Thermo Fisher Scientific) as described in the manufacturer’s instructions. A minimum of 20,000 events were recorded.
A total of 125 and 250 U2OS cells were seeded in triplicates in 96-well plates in a volume of 90 μl. Twenty-four hours after seeding, 10 μl of medium only or medium with the indicated peptides was added to the wells reaching a final peptide concentration of 5 μM. Cell proliferation was monitored using a CellTiter-Blue–based (Promega) approach at specific time points (0, 2, 5, and 7 days after peptide treatment). In brief, 20-μl CellTiter-Blue reagent (Promega) was added to the wells, incubated for 4 hours, and fluorescence intensity was measured at 560/590 nm using a SpectraMax M5 microplate reader (Molecular Devices).

Data set [2] can be described thus: CD spectroscopy and CD thermal denaturation. Format: physicochemical. The conditions noted are these: 210 nm, 25° until 90°C, ddH2O. The method, then: CD spectroscopy data were collected on a Jasco J-710 spectropolarimeter. A total of 0.2 or 0.05 mg/ml of LP^18–28 or SP^18–28 in ddH2O was measured with a 1-mm path length cuvette. CD spectra were recorded at 0.5-nm intervals between 190 and 260 nm at 25°C. CD thermal denaturation data were recorded at 210 nm at 0.2°C intervals starting at 25° until 90°C.

The subject of data set [3] is MCF10A. The experiment in a line: Clonogenic survival assay. Format: cell-based. The conditions noted are these: 10 μM peptide 24 hours, 10 days growth; BRCA1 wt nontumorigenic cell line. The method, then: (§1) Two hundred cells per well were seeded into poly-L-lysine (Sigma-Aldrich)–coated 24-well plates and the next day treated with respective drugs (CPT, Sigma-Aldrich; olaparib, Selleck Chemicals) and peptides (total volume: 300 μl per well). For details, see figure legends. After 10 days of growth, cells were fixed with crystal violet solution [0.5% crystal violet and 20% ethanol (w/v)]. Plates were scanned, and survival was analyzed with the ImageJ plugin Colony Area using the parameter colony intensity as readout ([47]).

Data set [4] concerns HeLa cells. Briefly: Clonogenic survival assay. In kind it is cell-based. The conditions noted are these: 10 μM, fig. S7A. The method, then:
as §1

The test system of data set [5] is RPE1. The experiment in a line: Clonogenic survival assay. The conditions noted are these: 10 μM peptide 24 hours, 10 days growth; BRCA1 wt nontumorigenic cell line. Format: cell-based. The method, then: as §1
For data set [6], the system named is MCF7. Briefly: Clonogenic survival assay. In kind it is cell-based. The conditions noted are these: 10 μM peptide 24 hours, 10 days growth; BRCA1 wt breast cancer cell line. The method, then: as §1
The subject of data set [7] is U2OS EGFP-HR. Briefly: HR reporter assay. In kind it is cell-based. To be noted: 10 μM peptide, 24 hours; GFP-positive cells by flow cytometry; n = 4. The method, then: HR reporter assay was performed as described previously ([45], [46]). Briefly, U2OS EGFP-HR were seeded into a 12-well plate and the day after transfected with pCBA I-SceI expression plasmid using jetPRIME transfection reagent (Polyplus). Four hours later, medium was exchanged, and cells were incubated with peptides for 24 hours in 1-ml total volume. Twenty-four hours later, medium was replaced, and cells were harvested 48 hours after I-SceI transfection. A-EJ reporter assay was performed according to ([10]) with some minor modifications. Specifically, U2OS EGFP-aEJ were seeded into six-well plates and siRNA transfected. Six hours later, cells were transfected with I-SceI expression plasmid (pCBA) using Fugene 6 (Promega). Medium was exchanged 24 hours after and replaced with 2-ml fresh medium and the peptides (10 μM). Twenty-four hours later, medium was again replaced with fresh medium without peptides, and 72 hours after I-SceI transfection, cells were harvested. GFP expression (readout for HR and a-EJ frequency) was measured by flow cytometry using the Attune Nxt flow cytometer equipped with a 488-nm laser and 530/30 band-pass filter. A minimum of 20,000 events were recorded.

The target in data set [8] is T1, full-length CtIP-wt (Homo sapiens, UniProt Q99708).
T1 construct: Full-length CtIP was purified according to ([14]); 3xFLAG; made in house
The experiment in a line: Blue native PAGE of full-length CtIP incubated with peptides. Format: biochemical. The conditions noted are these: 1- to 32-fold molar excess SP^18–28, 32-fold LP^18–28, 30 min RT. The method, then: Reactions were assembled in a volume of 10 μl with a 1.5 μM final concentration of CtIP and either 0, 1.5, 3, 6, 12, 24, or 48 μM LP/SP^18–28 in buffer A [10 mM tris (pH 8.0), 25 mM NaCl, 5% glycerol, and 0.5 mM dithiothreitol (DTT)] and 1× Blue Native Loading buffer [50 mM bis-tris (pH 7.2), 6 N HCl, 50 mM NaCl, 10% (w/v) glycerol, and 0.001% Ponceau S]. After incubation for 30 min at RT, samples were loaded onto a NativePAGE Novex 3 to 12% bis-tris gel (Invitrogen) and run at 150 V for 75 min. Gels were fixed in 40% methanol (MeOH) and 10% acetic acid and destained with 8% acetic acid.

Data set [9] has as its system U2OS^GFP-CtIP-wt. Briefly: Laser microirradiation, GFP-CtIP recruitment to γH2AX-decorated laser stripes. To be noted: 10 μM peptide, 24 hours, fixed 30 min after microirradiation; n = 4. Format: cell-based. The method, then:
Laser microirradiation was carried out as described previously ([25]). Briefly, cells were grown in 10 μM 5-bromo-2′-deoxyuridine (BrdU) for 24 hours before irradiation. Laser microirradiation was performed using a MMI CELLCUT system containing an ultraviolet (UV) A laser of 355 nm. Energy output was set to 50%, and each cell was exposed to laser beam for <300 ms. Cells were released for 30 min before fixation in 4% formaldehyde (w/v) in PBS for 15 min and permeabilization with 0.5% Triton X-100 (w/v) in PBS for 5 min at RT. After blocking with 3% FCS (w/v) in PBS for 1 hour, cells were stained with primary antibodies (table S3) for 2 hours. Staining with secondary antibodies (table S3) was performed for 1 hour. Coverslips were mounted with Vectashield supplemented with DAPI (4′,6-diamidino-2-phenylindole; Vector Laboratories), and images were acquired on a Leica DM6, 63× objective. For CtIP foci analyses, cells were fixed in 4% formaldehyde (w/v) in PBS for 15 min before permeabilization with 0.5% Triton X-100 (w/v) in PBS for 5 min at RT. A blocking step with 3% FCS (w/v) in PBS for 1 hour was followed by primary (2-hour) and secondary (1-hour) staining at RT.

Positions of bridges follow the written chain, without caps; N, C: chain ends. Non-standard residues stand in square brackets, D forms with d. Residues, ends and D or L forms follow the SMILES beside them. R8 = C=CCCCCCC[C@@](C)(N)C(=O)O; S5 = C=CCCC[C@](C)(N)C(=O)O

T1 sequence (Q99708 whole entry): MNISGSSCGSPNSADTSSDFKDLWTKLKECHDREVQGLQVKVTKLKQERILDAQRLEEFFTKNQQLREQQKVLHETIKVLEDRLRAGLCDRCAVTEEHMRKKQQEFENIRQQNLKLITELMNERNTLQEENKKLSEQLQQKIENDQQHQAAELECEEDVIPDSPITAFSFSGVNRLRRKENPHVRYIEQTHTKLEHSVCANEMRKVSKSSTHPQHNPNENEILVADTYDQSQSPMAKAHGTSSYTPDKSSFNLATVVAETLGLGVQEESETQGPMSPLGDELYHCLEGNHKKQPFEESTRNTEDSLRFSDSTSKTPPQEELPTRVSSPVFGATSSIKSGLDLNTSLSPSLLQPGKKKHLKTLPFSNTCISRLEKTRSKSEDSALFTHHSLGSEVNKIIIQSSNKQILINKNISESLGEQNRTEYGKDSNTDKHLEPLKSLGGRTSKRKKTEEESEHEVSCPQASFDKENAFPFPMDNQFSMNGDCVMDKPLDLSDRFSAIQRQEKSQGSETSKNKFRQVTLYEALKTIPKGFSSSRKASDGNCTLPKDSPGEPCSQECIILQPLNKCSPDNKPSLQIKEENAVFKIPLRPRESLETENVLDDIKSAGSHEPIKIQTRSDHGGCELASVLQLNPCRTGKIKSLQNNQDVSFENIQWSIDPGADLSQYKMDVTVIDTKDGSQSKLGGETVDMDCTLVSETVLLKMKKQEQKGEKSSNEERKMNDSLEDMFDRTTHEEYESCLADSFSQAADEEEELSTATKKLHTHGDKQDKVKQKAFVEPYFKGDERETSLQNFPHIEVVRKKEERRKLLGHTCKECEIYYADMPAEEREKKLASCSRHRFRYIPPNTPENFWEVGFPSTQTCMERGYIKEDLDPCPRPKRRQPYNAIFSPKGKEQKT

`CC(=O)N[C@@H](CO)C(=O)N[C@]1(C)CCCCCCC=CCCC[C@@](C)(C(=O)N[C@@H](CC(C)C)C(=O)N[C@@H](CCCCN)C(N)=O)NC(=O)[C@H]([C@@H](C)O)NC(=O)[C@H](Cc2c[nH]c3ccccc23)NC(=O)[C@H](CC(C)C)NC(=O)[C@H](CC(=O)O)NC(=O)[C@H](CCCCN)NC(=O)[C@H](Cc2ccccc2)NC1=O` [SP^18–28] (Ac-S[R8]FKDLWT[S5]LK-NH2; staple 2-9): the “bulk DNA replication, cell cycle distribution and cell proliferation” value in data set [1] was “neither interferes with bulk DNA replication nor causes any significant changes in cell cycle distribution and cell proliferation”. In addition, the “heat stability of secondary structure (CD thermal denaturation)” value in data set [2] was “no unfolding could be observed at temperatures of up to 90 °C”. Also, the “cell survival (clonogenic)” value in data set [3], in [5] and in [6] was “did not perceive a negative impact on cell survival” each time. In data set [4] (acute (24-hour) treatment), the “tolerability of acute peptide treatment (clonogenic)” value is recorded as “well tolerated”. In addition, in [4] (prolonged chronic treatment), the “cytotoxicity of chronic peptide treatment on its own (clonogenic)” value was “extreme cytotoxicity”.

In the case of Ac-SDFKDLWTKLK-NH2 [LP^18–28], the “HR frequency of I-SceI–induced DSBs” value in data set [7] is on record as “no measurable impact”. The “effect on CtIP-wt oligomeric state” value in [8] is “no apparent structural changes”. The “CtIP recruitment to γH2AX-decorated laser stripes” value in data set [9] was “no significant effect”.
